# US12509423B2, “Compound, aldehyde dehydrogenase 2 activating agent, pharmaceutical composition, and therapeutic and/or prophylactic drug” (Alchemedicine, Inc., priority 2020, dated 2025)
# Tests used:
# [1] = Metabolic stability with mouse hepatic microsomes; format: in vitro ADME; conditions: for Residual rate (%) of unchanged form: mouse hepatic microsomes, after 30 minutes, 37° C., NADPH
# Protocol: Metabolic stability in mouse hepatic microsomes was evaluated with the following method.
# • (1) Mouse hepatic microsomes: 20 mg/mL • (2) Test compound: 1.1 mM DMSO solution • (3) Potassium phosphate buffer solution: 66.7 mM (pH 7.4) • (4) NADPH solution: 10 mM in potassium phosphate buffer solution • (5) Quenching solution: 0.5% formic acid-acetonitrile solution with warfarin as internal standard substance 2. Method
# Into a propylene tube, 971.5 μL of the potassium phosphate buffer solution and 27.5 μL of the mouse hepatic microsomes were put and suspended. Thereto, 1 μL of a test compound was added, and 180 μL was taken from this mixture and transferred into another tube. The mixture was preincubated at 37° C. for 5 minutes, and 20 μL of the NADPH solution (for the case with an incubation time of 30 minutes) or 20 μL of the potassium phosphate buffer solution (for the case with an incubation time of 0 minutes) was then added thereto. After incubation, 200 μL of the quenching solution was added to terminate the reaction. Subsequently, centrifugation was performed at 3220×g for 20 minutes, and the concentration of the unchanged form of the test compound in 200 μL of the supernatant was measured with LC-MS/MS. On the basis of the peak area obtained for the unchanged form, the residual rate (%) of the unchanged form was calculated as that for the case with an incubation time of 0 minutes was assumed as 100%.
# [2] = target: T1, human recombinant ALDH2 enzyme (Homo sapiens, UniProt P05091); assay: ALDH2 activation effect (acetaldehyde oxidation rate, PicoProbe Aldehyde dehydrogenase Activity Assay Kit); format: biochemical
# T1 construct: purchased BioVision Inc
# T1 sequence (P05091 18-517): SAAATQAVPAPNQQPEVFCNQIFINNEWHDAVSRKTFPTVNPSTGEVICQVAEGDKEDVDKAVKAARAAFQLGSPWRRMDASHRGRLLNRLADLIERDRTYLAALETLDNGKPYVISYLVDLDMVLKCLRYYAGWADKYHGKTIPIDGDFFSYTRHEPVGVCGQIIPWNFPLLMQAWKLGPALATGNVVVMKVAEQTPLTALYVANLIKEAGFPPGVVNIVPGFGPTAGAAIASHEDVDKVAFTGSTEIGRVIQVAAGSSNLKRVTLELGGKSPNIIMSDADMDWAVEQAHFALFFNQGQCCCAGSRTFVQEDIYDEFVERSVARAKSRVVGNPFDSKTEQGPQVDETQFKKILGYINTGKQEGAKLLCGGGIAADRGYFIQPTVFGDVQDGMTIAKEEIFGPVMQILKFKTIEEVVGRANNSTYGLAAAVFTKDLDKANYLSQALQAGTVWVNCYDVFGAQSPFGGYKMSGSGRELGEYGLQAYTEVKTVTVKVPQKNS
# Protocol: The activation effect of each test compound on the acetaldehyde oxidation rate of ALDH2 was measured with the following method. A test was conducted by using a commercially available PicoProbe™ Aldehyde dehydrogenase Activity Assay Kit (manufactured by BioVision Inc.) with reference to an instruction attached to the product under the following conditions. To each well of a 384-well plate, the following (1) to (3) were sequentially added with a pipette: • (1) 10 μL of solution obtained by dissolving and diluting a human recombinant ALDH2 enzyme (manufactured by BioVision Inc.) with ALDH assay Buffer to reach 3-μg/mL; • (2) 10 μL of 30 μM or 90 μM test compound solution (with 3% DMSO) prepared by using ALDH assay Buffer; and • (3) 10 μL of Reaction mix composed with ratio of 8.6 μL of ALDH assay Buffer, 0.6 μL of PicoProbe, 0.3 μL of Substrate Mix, and 1.5 μL of Acetaldehyde.
# Before addition of (3), incubation was performed at room temperature for 5 minutes. After addition of (3), fluorescence intensity was measured at room temperature every 2.5 minutes over a period of 180 minutes by using an EnSight (manufactured by PerkinElmer Inc.). Wavelengths of 535 nm and 587 nm were used for fluorescence intensities of excitation and -emission, respectively.
# [3] = Metabolic stability with human hepatic microsomes; format: in vitro ADME; conditions: human hepatic microsomes 0.1 mg protein/mL, 0.1 μmol/L test compound, after 30 minutes, 37° C.
# Protocol: The specific method is as follows.
# • (1) Fifty microliter-portions were taken from 0.2 μmol/L test compound diluted with β-NADPH solution. • (2) Fifty microliters of 0.2 mg protein/mL human hepatic microsome solution was added to each (except for a sample with a reaction time of 0 minutes). • (3) Incubation was performed with shaking at 37° C. for 30 minutes (concentration in reaction sample: 0.1 μmol/L test compound, 0.1 mg protein/mL human hepatic microsome). • (4) After incubation, 400 μL of methanol was added to terminate the reaction. • (5) To the sample with a reaction time of 0 minutes, 50 μL of 0.2 mg protein/mL hepatic microsome solution was added. • (6) Each of the samples from (4) and (5) was left to stand at −20° C. for 30 minutes or longer, and then centrifuged at 4° C. and 3,000 rpm for approximately 10 minutes. • (7) The supernatant was subjected to measurement with LC/MS/MS, and, based on the peak area obtained for the unchanged form, the residual rate (%) of the unchanged form was calculated as that for the case with an incubation time of 0 minutes was assumed as 100%.
# [4] = concentration of test compound 10 μM
# [5] = concentration of test compound 30 μM
SMILES,Residual rate (%) of unchanged form [1],"acetaldehyde oxidation rate (rate with no test compound assumed as 100%) [2, 4]","acetaldehyde oxidation rate (rate with no test compound assumed as 100%) [2, 5]",metabolic stability in mouse hepatic microsomes (in words) [1],Residual rate (%) of unchanged form [3]
"COCc1ccc(CNC(=O)c2c(F)cccc2Cl)cc1F [Comparative Example 5, reference compound]",<1%,,,,
"CC(O)c1cccnc1-c1ccc(F)c(C(=O)NCc2ccc(COC(F)F)c(F)c2)c1 (stereo not drawn) [Example 5, N-(4-((Difluoromethoxy)methyl)-3-fluorobenzyl)-2-fluoro-5-(3-(1-hydroxyethyl)pyridin-2-yl)benzamide]",52%,124%,146%,confirmed to have stability,72%
"COc1ccc(CNC(=O)c2cc(-c3ncccc3CO)ccc2OCC2CC2)cc1F [Comparative Example 2, reference compound]",6%,,,,
"COCc1ccc(CNC(=O)c2cc(-c3ncccc3C(C)O)ccc2F)cc1F (single isomer, unassigned) [Example 3, Chiral 2-fluoro-N-(3-fluoro-4-(methoxymethyl)benzyl)-5-(3-(1-hydroxyethyl)pyridin-2-yl)benzamide]",64%,137%,176%,,
"COCc1ccc(CNC(=O)c2cc(-c3ncccc3COC)ccc2F)cc1F [Example 6, 2-Fluoro-N-(3-fluoro-4-(methoxymethyl)benzyl)-5-(3-(methoxymethyl)pyridin-2-yl)benzamide]",24%,139%,161%,confirmed to have stability,75%
"O=C(NCc1ccc2c(c1)OCO2)c1c(Cl)cccc1Cl [Comparative Example 1, reference compound]",<1%,149%,176%,,
"COCc1ccc(CNC(=O)c2c(Cl)cccc2Cl)cc1F [Comparative Example 3, reference compound]",1%,,,,
"COCc1ccc(CNC(=O)c2cc(-c3n[nH]cc3CO)ccc2Cl)cc1F [Example 7, 2-Chloro-N-(3-fluoro-4-(methoxymethyl)benzyl)-5-(4-(hydroxymethyl)-1H-pyrazol-3-yl)benzamide]",74%,157%,170%,,
"COCc1ccc(CNC(=O)c2c(F)cccc2F)cc1F [Comparative Example 6, reference compound]",1%,,,,
"COCc1ccc(CNC(=O)c2c(F)cccc2Br)cc1F [Comparative Example 4, reference compound]",<1%,,,,
"COCc1ccc(CNC(=O)c2cc(-c3ncccc3C(C)O)ccc2F)cc1F (single isomer, unassigned) [Example 4, Chiral 2-fluoro-N-(3-fluoro-4-(methoxymethyl)benzyl)-5-(3-(1-hydroxyethyl)pyridin-2-yl)benzamide]",60%,131%,155%,,
